Assays:
Assay type in all cases: in vivo, human
[1] = tested on: middle age person with shoulder pain; assay: Case report: shoulder pain, CMO with gabapentin; conditions: 0.1 milligrams to 10 grams cetyl myristoleate once to four times per day with an effective dosage gabapentin; one patient
Source text: A middle age person was taking a brief CMO regime for shoulder pain.

[2] = tested on: middle age person with complex regional pain syndrome; assay: Case report: complex regional pain syndrome with post-surgery pain
Procedure: A middle age person with complex regional pain syndrome had post-surgery pain. It was so severe that the person was to have foot amputation for the pain. A dosage of 0.1 milligrams to 10 grams of cetyl myristoleate once to four times per day was administered to the person. Shortly, the person described the pain decreased by 20-30 percent.

[3] = tested on: middle age person with cervical post-surgery syndrome; assay: Case report: cervical post-surgery syndrome; conditions: 0.1 milligrams to 10 grams cetyl myristoleate once to four times per day; one patient
Source text: A middle age person experienced cervical post-surgery syndrome.

[4] = tested on: middle age person with knee pain; assay: Case report: knee pain, CMO with gabapentin; conditions: 0.1 milligrams to 10 grams cetyl myristoleate once to four times per day with appropriate dosage gabapentin; one patient
Source text: A middle age person was taking a brief CMO regime for knee pain.

Question: Which results are given for CCCC/C=C\CCCCCCCC(=O)OCCCCCCCCCCCCCCCC [cetyl myristoleate, cis-9-Cetyl myristoleate]?
Answer: shoulder pain [1]: decreased dramatically; pain decreased (patient described) ([2]; 0.1 milligrams to 10 grams cetyl myristoleate once to four times per day, one patient, post-surgery pain): 20-30%; amputation outcome ([2]; patient was to have foot amputation for the pain, 0.1 milligrams to 10 grams once to four times per day): has not undergone amputation; post-laminectomy syndrome (PLS) [3]: improved significantly; knee pain [4]: decreased dramatically

From patent publication US20190008819A1, “Methods and Compositions Using Cetyl Myristoleate (CMO) In Medical Treatments” (priority 2017, published 2019)
